From patent US20240217961A1 (MONOPTEROS THERAPEUTICS, INC., priority 2021, published 2024)
Entries after “also recorded” stand apart in the source; their conditions may differ. Each block holds one compound with its values, some of them ahead of it.

Experiments:
[1] = Excipient compatibility study of milled API in binary mixtures (40° C./75% R.H. open, 60° C. closed; HPLC, XRPD, appearance); type: physicochemical
Method: Samples were set up at each of these two conditions: 40° C./75% R.H. open, and 60° ° C., closed. Three sampling time points (initial, 2 weeks, and 4 weeks) are specified in Table 15.
The API was set up as a control at each time point and each condition. For the pure excipients, only one bulk sample was set up at each condition. They were analyzed at the initial time point and at other time points if degradation of the active substance was observed. For the 15 binary mixtures, triplicate samples were set up at each time point/condition. Two samples were analyzed for purity and XRPD test, and the third one was kept as a contingency sample. The appearance and XRPD of samples under each condition were recorded at each time point.
The binary mixture was set up in duplicate.
Excipient blank controls: Each excipient blank was weighed into a 40 mL clear glass vial as excipient blank control. The excipient blank was set up as a single sample.
API control: Approximate: 13.8 mg of API was weighed into a 40 mL clear glass vial. The API control was set up in duplicate.
All the samples for open condition storage were put into an uncapped clear glass vial. The mouth of vials were covered by aluminum foil with pinholes, to avoid cross-contamination, and then stored in the stability chamber. The samples were stored at each condition 40° C./75% R.H. open and 60° C. close conditions and monitored for physical appearance, XRPD, impurities/related substances and assay at each time point, respectively.
All samples at 40° C./75% R.H., and 60° C. for 2 weeks and 4 weeks, were pulled out and cooled to room temperature for physical appearance, total related substances (TRS) and assay analysis. The diluent was accurately added into 40 ml vials and then the solution was sonicated for 10 minutes to facilitate dissolution of the API. Then 1 mL solution was taken out and centrifuged at 14000 rpm for 5 min for twice to separate some undissolved excipients, and then the concentration of supernatants were analyzed by HPLC instrument. The recovery and TRS results of excipient compatibility study at 40° C./75% R.H., and 60° C. are shown in Table 9, and the results of the complete impurity content and XRPD result are listed in Table 7.

[2] = Hygroscopicity: storage at 92.5% RH for 1 week, weight loss by TGA; type: physicochemical; settings: for 92.5% RH for 1W (by TGA,%): weight loss by TGA at 145° C. after 92.5% RH for 1 week; for 92.5% RH for 1W, observation: after 92.5% RH for 1 week, Deliqu means deliquescent
[3] = Dynamic Vapor Sorption (DVS) at 25° C.; settings: for DVS Result 95% RH: 0(120 min)-95% RH(180 min), dm/dt 0.002%
[4] = Solubility at 25° C., 24 h, in SGF, FaSSIF, FeSSIF and water; type: physicochemical
[5] = 70% RH, 25° C., method 50-90-0-50% RH, dm/dt = 0.01%

Compound: CN1CCCC(CN2c3ccccc3Sc3ccccc32)C1.O=C(O)CCC(=O)O (stereo not shown) [API control]
- Assay (%) ([1]; 40° C./75% RH open, 2 weeks): 100.82%
- TRS (%) (total related substances) ([1]; 40° C./75% RH open, 2 weeks): 0.18%
- XRPD ([1]; 40° C./75% RH open, 2 weeks): No change
- Assay (%) ([1]; 40° C./75% RH open, 4 weeks): 100.08%
- TRS (%) (total related substances) ([1]; 40° C./75% RH open, 4 weeks): 0.12%
- XRPD ([1]; 40° C./75% RH open, 4 weeks): No change
- Assay (%) ([1]; 60° C. close, 2 weeks): 99.70%
- TRS (%) (total related substances) ([1]; 60° C. close, 2 weeks): 0.18%
- XRPD ([1]; 60° C. close, 2 weeks): No change
- Assay (%) ([1]; 60° C. close, 4 weeks): 102.38%
- TRS (%) (total related substances) ([1]; 60° C. close, 4 weeks): 0.13%
- XRPD ([1]; 60° C. close, 4 weeks): No change
- Assay (%) ([1]; Initial 0 day): 100.00%
- TRS (%) (total related substances) ([1]; Initial 0 day): 0.14%

Compound: CN1CCCC(CN2c3ccccc3Sc3ccccc32)C1.O=C(O)CCCCC(=O)O (stereo not shown) [Adipate]
- 92.5% RH for 1W (by TGA,%) [2]: 0.6% at

- DVS Result 95% RH ([3]; 25° C.): 16.84%
- 92.5% RH for 1W (by TGA,%) [2]: 2.4% at
Compound: N[C@@H](CCC(=O)O)C(=O)O [Glutamate]

Compound: CN1CCCC(CN2c3ccccc3Sc3ccccc32)C1.Cl (stereo not shown) [Hydrochloride, reference compound]
- moisture absorbed by DVS ([3]; 25° C. and 95% RH for about 5 hours): 16.9 wt %
- moisture absorbed at 80% RH ([3]; 80% RH at 25° C.): 0.85%
- behaviour under long term humidity conditions ([2]; 25° C., 92.5% RH for one week): deliquescent
- 92.5% RH for 1W, observation [2]: Deliqu

Compound: CN1CCCC(CN2c3ccccc3Sc3ccccc32)C1.O=C(O)CC(O)C(=O)O (stereo not shown) [Malate]
- 92.5% RH for 1W, observation [2]: Deliqu

Compound: CN1CCCC(CN2c3ccccc3Sc3ccccc32)C1.O=P(O)(O)O (stereo not shown) [Phosphate]
- DVS Result 95% RH ([3]; 25° C.): 5.18%
- 92.5% RH for 1W (by TGA,%) [2]: 1.3% at

- 92.5% RH for 1W (by TGA,%) [2]: 2.3% at 145 °C
Compound: O=S(=O)(O)O [Sulfate]
- 92.5% RH for 1W, observation [2]: Discoloration,; also recorded: Agglomerate

Compound: CN1CCCC(CN2c3ccccc3Sc3ccccc32)C1.O=C(O)C(O)C(O)C(=O)O (stereo not shown) [Tartarate Pattern I]
- 92.5% RH for 1W, observation [2]: Deliqu

- DVS Result 95% RH ([3]; 25° C.): 1.87%
- 92.5% RH for 1W (by TGA,%) [2]: 0.4% at
Compound: (S)-mepazine succinate salt

- DVS Result 95% RH ([3]; 25° C.): 1.29%
- DVS Desorp (%) [3, 5]: 0.13%
- DVS Sorption (%) [3, 5]: 0.13%
- Solubility 24 h ([4]; FaSSIF, pH 6.5): 9400 µg/mL
- pH of solubility sample ([4]; FaSSIF, pH 6.5, 24 h): 3.63
- pH of solubility sample ([4]; FaSSIF, pH 6.5, 24 h, target concentration 2 mg/mL): 5.48
- Solubility 24 h ([4]; FaSSIF, pH 6.5, target concentration 2 mg/mL): > 2000 µg/mL
- Solubility 24 h ([4]; FeSSIF, pH 5.0): 3400 µg/mL
- pH of solubility sample ([4]; FeSSIF, pH 5.0, 24 h): 4.52
- pH of solubility sample ([4]; FeSSIF, pH 5.0, 24 h, target concentration 2 mg/mL): 4.89
- Solubility 24 h ([4]; FeSSIF, pH 5.0, target concentration 2 mg/mL): > 2000 µg/mL
- Solubility 24 h ([4]; H2O): 3800 µg/mL
- pH of solubility sample ([4]; H2O, 24 h): 3.49
- pH of solubility sample ([4]; H2O, 24 h, target concentration 2 mg/mL): 3.80
- Solubility 24 h ([4]; H2O, target concentration 2 mg/mL): > 2000 µg/mL
- Solubility 24 h ([4]; SGF, pH 2.0): 7500 µg/mL
- pH of solubility sample ([4]; SGF, pH 2.0, 24 h): 2.60
- pH of solubility sample ([4]; SGF, pH 2.0, 24 h, target concentration 2 mg/mL): 1.99
- Solubility 24 h ([4]; SGF, pH 2.0, target concentration 2 mg/mL): > 2000 µg/mL
- 92.5% RH for 1W (by TGA,%) [2]: 0.3% at
Compound: Fumarate
